Experimental data: US11571396B2, “Ketamine for treatment of ADNP syndrome and sensory processing deficits” (priority 2019, dated 2023)

What was measured:
ADNP gene expression = settings: cited from earlier work; for ADNP gene expression increase: somatosensory cortex of post-natal day 7 rats, sedative dose
Neurons = Neurons treated with low concentration ketamine: ADNP levels and growth cones; format: cell-based
Source text: We believe that low-dose ketamine, by inducing ADNP, does more than could be with NAP alone.

[1] = system: caspase-3 activation in the hippocampus and somatosensory cortex; assay: Ketamine-induced neuronal cell death / injury, low-dose ketamine pre-treatment; format: in vivo, rats; settings: for high dose ketamine induced injury: low dose ketamine 5 mg/kg, NAP administration
Source text: ADNP induction may be partially responsible for the efficacy of a low-dose ketamine pre-treatment in preventing ketamine-induced neuronal cell death. […] It is therefore theorized that low-dose ketamine prevents high-dose ketamine injury at least in part by increasing expression of ADNP.

growth cones = settings: cited from earlier work

Molecule	ADNP gene expression increase (ADNP gene expression) [fold]	negative effects of decreased growth cones (Neurons; 50 μM)	ADNP levels (Neurons; 50 μM, compared with higher ketamine dosing)	location of primary increase in ADNP (Neurons; following ketamine treatment)	total cellular ADNP levels (Neurons; low concentration exposure, 50 or 100 μM)	ADNP in neurites (Neurons; low concentration of ketamine)	growth cones (Neurons; low concentration of ketamine)	apoptosis ([1]; high-dose ketamine, rats)	expression of ADNP ([1]; high-dose ketamine, rats)	high dose ketamine induced injury [1]	ADNP levels ([1]; low-dose ketamine)	caspase-3 activation ([1]; low-dose ketamine, hippocampus and somatosensory cortex)	gene expression of ADNP (ADNP gene expression; anesthetic doses)	ADNP protein levels (ADNP gene expression; low doses, including in the somatosensory cortex)	ADNP expression (ADNP gene expression; low doses)	invasion of dynamic microtubules into growth cones (growth cones)
C[C@]12N[C@H](Cc3ccccc31)c1ccccc12 [MK801]	1.5															
CNC1(c2ccccc2Cl)CCCCC1=O (stereo not drawn) [ketamine]	1.5	not observed	increased at a rate equivalent to higher ketamine dosing	the primary increase in ADNP occurred in the nucleus	notably increased	significant increase	stably expanded growth cones	induce apoptosis	induce	blocks high dose ketamine induced injury	increases ADNP levels	prevents caspase-3 activation	induce gene expression of ADNP	increase ADNP protein levels	induce ADNP expression	
NAPVSIPQ										blocks high dose ketamine induced injury						enhance the invasion of dynamic microtubules into growth cones
